{"source": "patent US12214079B2", "about": "“Micronized lipids” (MCAL Therapeutics Inc., priority 2021, dated 2025)", "key": {"[1]": {"assay": "General and physiochemical properties of MCAL-201 (solubility, hygroscopicity)", "type": "physicochemical", "procedure": "The general and physiochemical properties of MCAL-201 are: • 1,2-EPRG has a molecular weight of 611.05 g/mol • Empirical formula: C39H78O4 • Appearance: White powder • Particle size: 1-10 μm (post micronization) • Hygroscopicity: Low • Chirality: Racemic • Enantiomeric excess: 0 • Melting point: 57° C. • Solubility: Insoluble in water. Soluble in chloroform (40 mg/mL) and castor • oil (25 mg/mL)\nHowever, preparation of a water soluble cyclodextrin inclusion complex of MCAL-201 was used in nonclinical efficacy studies. In addition, solutions of MCAL-201 in castor oil which can be emulsified to micron sized liquid particles in aqueous buffers can be used to deliver MCAL-201 directly to the tear film lipid layer."}, "[2]": {"assay": "Isomeric stability (1,2-EPRG to 1,3-EPRG acyl migration), NMR analysis of isomeric content", "type": "physicochemical", "description": "FIG. 4 provides NMR (nuclear magnetic resonance) spectral analysis of 1,3-EPRG and 1,2-EPRG isomeric content (1.15 mol % 1,3-EPRG) of MCAL-201 after jet mill micronization.\nFIG. 5 provides NMR (nuclear magnetic resonance) spectral analysis of 1,3-EPRG and 1,2-EPRG isomeric content (0.0991 mol % 1,3-EPRG) of MCAL-201 after solid micronized MCAL-201suspension is stored at room temperature for 6 weeks.\nThis led to development of the delivery of solid MCAL-201 as a suspension of crystalline or amorphous micronized solid particle suspended in a water-based formulation isotonic with tear. Although MCAL-201 crystalline drug substance floated on phosphate buffered saline (PBS) it could be suspended following micronization to 1-10 micron particles which could be stably suspended in PBS with the aid of polysorbate 80 as a wetting agent and xanthan gum to adjust density and viscosity of the drug product."}, "[3]": {"tested_on": "naive dogs", "assay": "Non-GLP topical ocular dose range-finding toxicity and tolerability study (SPOTS scoring)", "type": "in vivo", "conditions": "up to 10 mg/mL OU BID for 48 hours", "procedure": "A non-GLP topical ocular administration dose range-finding pharmacology and toxicity study of MCAL-201 was conducted in naive dogs. The primary study objective was to assess the tolerability of topical ocular administration of MCAL-201 in dogs with a secondary objective to obtain data supporting pharmacological activity in healthy dogs.\nThe effects of vehicle and 0.1, 0.5, 1, 3 and 10 mg/mL MCAL-201 delivered as a 35 μL drop bilaterally QD (0.0035, 0.0175, 0.035, 0.105 and 0.35 mg/eye/day) were evaluated in Part I. The dosing regimen is summarized in 3.\n(§1) Scoring of the ocular surface and anterior segment of the eye was performed using the SPOTS system by a board-certified veterinary ophthalmologist. SPOTS was performed for each concentration evaluated. To measure TBUT, fluorescein was instilled in the eye and the eye was manually closed and then gently opened to simulate a blink. The time interval between the opening of the eye and the first sign of disruption of the uniform tear film, as indicated by breaks in the fluorescein was recorded in seconds. The procedure was repeated three times on both eyes, first right than left eye. After BID dosing with 10 mg/mL MCAL-201, SPOTS was also performed at 48 hours after the last dose."}, "[4]": {"tested_on": "healthy dogs", "assay": "Tear film break-up time (TBUT) by fluorescein after topical ocular administration", "type": "in vivo, dog", "conditions": "5 healthy adult dogs", "procedure": "as §1"}}, "note": "“Also recorded” adds a separate entry of the source. Like-named read-outs stand apart in the source and are kept apart here.", "data": [{"compound": "CCCCCCCCCCCCCCCCCCCCOCC(CO)OC(=O)CCCCCCCCCCCCCCC", "note": "(racemic) [MCAL-201, 1-O-eicosanyl-2-palmitoyl-rac-glycerol]", "values": [{"measurement": "Hygroscopicity", "setting": "[1]", "result": "Low"}, {"measurement": "solubility", "setting": "[1]; castor oil, oil or lipid, read-out: Solubility in castor oil", "result": 25, "unit": "mg/mL"}, {"measurement": "solubility", "setting": "[1]; chloroform, organic solvent or mixture, read-out: Solubility in chloroform", "result": 40, "unit": "mg/mL"}, {"measurement": "Solubility in water", "setting": "[1]; water", "result": "Insoluble; also recorded: extreme insolubility"}, {"measurement": "1,3-EPRG isomeric content (NMR)", "setting": "[2]; after jet mill micronization", "result": 1.15, "unit": "mol %"}, {"measurement": "Chemical stability (acyl migration of palmitoyl from 2 to 3 position)", "setting": "[2]; liquid solution phase", "result": "lacked long-term chemical stability"}, {"measurement": "Time for which isomeric stability was demonstrated", "setting": "[2]; micronized, in the suspension formulation at room temperature", "result": 6, "unit": "weeks"}, {"measurement": "Stability to the micronization process", "setting": "[2]; particles recovered from formulated drug by centrifugation and washing", "result": "chemical and isomeric stability"}, {"measurement": "1,3-EPRG isomeric content (NMR)", "setting": "[2]; solid micronized suspension stored at room temperature for 6 weeks", "result": 0.0991, "unit": "mol %"}, {"measurement": "Isomeric stability", "setting": "[2]; solid phase, compared with solution", "result": "far greater than in solution"}, {"measurement": "Ocular or systemic adverse events", "setting": "[3]; any time or concentration evaluated", "result": "no ocular or systemic adverse events"}, {"measurement": "Tolerability", "setting": "[3]; topical ocular 35 μL drop", "result": "well tolerated"}, {"measurement": "Effect on TBUT", "setting": "[4]", "result": "extended TBUT"}]}]}
